Series [1] relates to MRC5. The series is described as follows: Cytostatic activity against human MRC5 cells assessed as reduction in cell viability after 48 hrs by MTT assay. As to conditions: MRC5, 48 h. The format is functional, cell-based. (In general: Tetrazolium assays rely on reduction of a dye to a coloured formazan, in cell work by metabolically active cells.)
Series [2] relates to T98G. The series is described as follows: Cytostatic activity against human T98G cells assessed as reduction in cell viability after 48 hrs by MTT assay. The format is functional, cell-based.
The test system of series [3] is U-118-MG. Briefly: Cytostatic activity against human U118MG cells assessed as reduction in cell viability after 48 hrs by MTT assay. The format is functional, cell-based.
The test system of series [4] is U-87 MG. Briefly: Cytostatic activity against human U87MG cells assessed as reduction in cell viability after 48 hrs by MTT assay. In kind it is functional, cell-based, U-87MG ATCC.
A short description of series [5]: Half life in RPMI/FBS cell culture media 9:1 (v/v) at 2 mM by HPLC analysis. In kind it is physicochemical. Conditions: cattle.
Series [6] is described as follows: Half life in human serum at 2 mM by HPLC analysis. In kind it is ADME, cell-free.
Series [7] concerns HeLa. The series is described as follows: Cytostatic activity against human HeLa cells assessed as reduction in cell viability after 48 hrs by MTT assay. The format is functional, cell-based.
Series [8] has as its system T47D. Briefly: Cytostatic activity against human T47D cells assessed as reduction in cell viability after 48 hrs by MTT assay. The format is functional, cell-based.
Series [9] is described as follows: Selectivity index, ratio of IC50 for human MRC5 cells to IC50 for human T98G cells. The format is toxicity. Conditions: MRC5 cells and T98G cells, read-out: Ratio IC50.
Series [10] can be described thus: Selectivity index, ratio of IC50 for human MRC5 cells to IC50 for human U118MG cells. The format is toxicity. As to conditions: MRC5 cells and U118MG cells, read-out: Ratio IC50.
Series [11] in a line: Selectivity index, ratio of IC50 for human MRC5 cells to IC50 for human U87MG cells. In kind it is toxicity. Conditions: MRC5 cells and U87MG cells, read-out: Ratio IC50.
For series [12], the system named is Caco-2. The series is described as follows: Cytostatic activity against human Caco2 cells assessed as reduction in cell viability after 48 hrs by MTT assay. In kind it is functional, cell-based. As to conditions: Caco-2, 48 h.
Series [13] in a line: Stability in RPMI cell culture media at 2 mM by HPLC analysis. The format is physicochemical. Conditions: 2000 µM.

The structures appear in SMILES notation.

The IC50 is the midpoint of a concentration-inhibition curve. Turning to `CCCCCCCCCC[n+]1cccc(O)c1`, the IC50 in [1] was determined as 126 µM; in [2] it was 55.6 µM; in [3], 125 µM; in series [4] it was 158 µM.
For `Oc1cccnc1`, the concentration for half-maximal inhibition (IC50) in series [1], in [2], in series [3] and in [4] was > 500 µM each time.
Broadly, the half-life is the time in which the quantity being followed falls by half. Lower therefore signals rapid decline. With `C[n+]1cccc(OP(=O)([O-])OC[C@H]2O[C@@H](n3cc(F)c(=O)[nH]c3=O)C[C@@H]2OC(=O)c2ccccc2)c1`, the half-life at 2000 µM in series [5] is 14.8 h; in [6], 37.3 h. The IC50 in [1] was determined as 5.75 µM; in series [7], 1.26 µM; in series [8], 3.91 µM; in [2], 3.48 µM; in series [3] it was 3.15 µM; in series [4], 0.59 µM. In addition, in series [12], the half-maximal inhibitory concentration (IC50) amounted to 1.38 µM. Moreover, the selectivity ratio came to 2 in [9], 2 in series [10] and 10 in series [11]. Further, in series [13], the Stability entry is recorded as “Stable”.
Regarding `O=C(O[C@H]1C[C@H](n2cc(F)c(=O)[nH]c2=O)O[C@@H]1COP(=O)(O)Oc1ccc2ncccc2c1)c1ccccc1`, the half-life at 2000 µM in series [5] is 7.7 h; in series [6], 16.5 h. Besides, the 50% inhibitory concentration (IC50) amounted to 1.3 µM in series [1]; 7.3 µM in series [7]; 7.14 µM in [8]; 1.3 µM in series [2]; 0.79 µM in series [3]; 0.88 µM in series [4]. The IC50 in series [12] stood at 2.46 µM. Moreover, the selectivity ratio worked out at 1 in series [9], 2 in series [10] and 1 in series [11]. Also, in series [13], the Stability entry is reported as “Stable”.
In the case of `CCCCCCCCCC[n+]1cccc(OP(=O)([O-])OC[C@H]2O[C@@H](n3cc(F)c(=O)[nH]c3=O)C[C@@H]2OC(=O)c2ccccc2)c1`, the half-life at 2000 µM was 16.5 h in series [5] and 8.3 h in series [6]. Besides, the 50% inhibitory concentration (IC50) in series [1] is 14.1 µM; in [7], 1.2 µM; in series [8], 8.73 µM; in series [2] it was 0.4 µM; in series [3], 0.32 µM; in series [4] it was 0.67 µM. Further, the half-inhibitory concentration (IC50) in series [12] is 12.9 µM. The selectivity ratio in [9] came to 35; in series [10], 44; in [11] it was 21. In addition, the Stability result in series [13] was “Stable”.
With `CCCCCCCCCc1ccc(OP(=O)(O)OC[C@H]2O[C@@H](n3cc(F)c(=O)[nH]c3=O)C[C@@H]2OC(=O)c2ccccc2)cc1`, the half-life at 2000 µM in series [5] and in series [6] was > 120 h each time. In addition, the IC50 was found to be 39.9 µM in series [1]; 40.1 µM in series [7]; 26.7 µM in series [8]; 6.74 µM in series [2]; 11 µM in [3]; 6.73 µM in [4]. Besides, in series [12], the concentration for half-maximal inhibition (IC50) came to 20.4 µM. The selectivity ratio is 6 in series [9], 4 in [10] and 6 in [11]. Also, in [13], the Stability entry is on record as “Stable”.
Take `O=c1[nH]c(=O)n([C@H]2C[C@H](O)[C@@H](COP(=O)(O)Oc3ccccc3)O2)cc1F`: the values for the half-life at 2000 µM in series [5] and in [6] were 28 h and 52.3 h, respectively. Further, the 50% inhibitory concentration (IC50) in series [1] came to 36.7 µM; in [7], 15.2 µM; in [8] it was 13.4 µM; in series [2], 32.2 µM; in series [3], 14.6 µM; in series [4], 33.7 µM. In addition, the IC50 in series [12] is 26.6 µM. In addition, the selectivity ratio in series [9] turned out to be 1; in [10], 3; in series [11], 1. Further, the Stability entry in series [13] was “Stable”.
Regarding `CCOC(=O)C[n+]1cccc2cc(O)ccc21`, the 50% inhibitory concentration (IC50) is 162 µM in series [1], > 200 µM in [2], > 200 µM in [3] and > 200 µM in series [4].
As for `O=c1[nH]c(=O)n([C@H]2C[C@H](O)[C@@H](COP(=O)(O)Oc3cccnc3)O2)cc1F`, the half-life at 2000 µM in [5] was 16.7 h; in [6], 19.9 h. Also, the half-maximal inhibitory concentration (IC50) came out at 8.5 µM in [1]; 0.7 µM in [7]; 9.35 µM in [8]; 1.2 µM in [2]; 27.5 µM in [3]; 39.8 µM in series [4]. For the same compound, in [12], the 50% inhibitory concentration (IC50) is 3.39 µM. The selectivity ratio in series [9] is 7; in [10], < 1; in [11], < 1. In addition, in series [13], the Stability entry is “Stable”.
On to `O=C(O[C@H]1C[C@H](n2cc(F)c(=O)[nH]c2=O)O[C@@H]1COP(=O)([O-])Oc1ccc[n+](Cc2ccccc2)c1)c1ccccc1`, for which the values for the half-life at 2000 µM in series [5] and in [6] were 10.8 h and 14.4 h, respectively. In addition, the IC50 came out at 38.5 µM in [1]; 0.53 µM in series [7]; 3.43 µM in series [8]; 2.6 µM in [2]; 1.47 µM in series [3]; 0.66 µM in series [4]. In addition, the IC50 in series [12] came out at 0.43 µM. Besides, the selectivity ratio in series [9] is 15; in series [10] it was 26; in series [11] it was 58. For the same compound, the Stability result in [13] is given as “Stable”.
With `C[N+](C)(C)CCOP(=O)([O-])OC[C@H]1O[C@@H](n2cc(F)c(=O)[nH]c2=O)C[C@@H]1OC(=O)c1ccccc1`, the half-life at 2000 µM was 20 h in series [5] and 116 h in [6]. For the same compound, the IC50 in [1] is 1.3 µM; in series [7] it was 3.6 µM; in series [8], 39.6 µM; in series [2], 24.7 µM; in series [3], 7.54 µM; in series [4] it was 1.79 µM. Further, in series [12], the IC50 is 8.12 µM. In addition, the selectivity ratio in series [9], in series [10] and in series [11] was < 1 throughout. The Stability entry in series [13] is “Stable”.
As for `C[N+]1(Cc2ccccc2)C2CCC1CC(OP(=O)([O-])OC[C@H]1O[C@@H](n3cc(F)c(=O)[nH]c3=O)C[C@@H]1OC(=O)c1ccccc1)C2` (stereo partly specified), the half-life at 2000 µM in [5] and in [6] was > 120 h throughout. Also, the 50% inhibitory concentration (IC50) in series [1] was 62.5 µM; in series [7] it was > 80 µM; in series [8], > 80 µM; in [2], 49.9 µM; in series [3] it was 66.3 µM; in series [4], 35.9 µM. Moreover, the 50% inhibitory concentration (IC50) in [12] is > 80 µM. In addition, the selectivity ratio in series [9] is 1; in [10], 1; in series [11], 2. For the same compound, the Stability result in series [13] is “Stable”.
Regarding `C[N+]1(C)CCC(OP(=O)([O-])OC[C@H]2O[C@@H](n3cc(F)c(=O)[nH]c3=O)C[C@@H]2OC(=O)c2ccccc2)CC1`, the half-life at 2000 µM in series [5] and in series [6] was > 120 h each time. Further, the IC50 in series [1] is 8.3 µM; in series [7], 27.2 µM; in [8], 11.9 µM; in [2] it was 6.7 µM; in series [3], 4.42 µM; in series [4] it was 1.28 µM. Moreover, the IC50 in series [12] came to 15.7 µM. For the same compound, the selectivity ratio stood at 1 in [9], 2 in series [10] and 7 in [11]. Besides, the Stability result in [13] is given as “Stable”.
Regarding `CCOC(=O)C[n+]1cccc(O)c1`, the IC50 in [1], in [2], in series [3] and in series [4] was > 200 µM each time.
As for `O=C(O[C@H]1C[C@H](n2cc(F)c(=O)[nH]c2=O)O[C@@H]1COP(=O)(O)Oc1ccccc1)c1ccccc1`, the half-life at 2000 µM in series [5] was 6.6 h; in series [6], 5.1 h. The IC50 in series [1] worked out at 1.27 µM; in series [7], 5.86 µM; in [8], 6.88 µM; in series [2], 0.81 µM; in [3], 0.97 µM; in series [4], 0.8 µM. Besides, in series [12], the IC50 amounted to 1.02 µM. Also, the selectivity ratio in [9] was found to be 2; in [10] it was 1; in [11], 2. In series [13], the Stability entry was “Stable”.
As to `O=c1[nH]c(=O)n([C@H]2C[C@H](O)[C@@H](COP(=O)(O)Oc3ccc4ncccc4c3)O2)cc1F`, the figures for the half-life at 2000 µM in [5] and in series [6] were 26 h and 26.2 h, respectively. Further, the 50% inhibitory concentration (IC50) is 1.3 µM in [1]; 7.3 µM in [7]; 8.11 µM in [8]; 1.9 µM in [2]; 7.07 µM in series [3]; 10.7 µM in series [4]. In series [12], the IC50 came out at 1.4 µM. Also, the selectivity ratio in [9], in series [10] and in [11] was < 1 throughout. Also, in [13], the Stability result is reported as “Stable”.
`Oc1ccc[n+](Cc2ccccc2)c1`: the IC50 in [1], in series [2], in [3] and in series [4] was > 200 µM each time.

The values are drawn from ChEMBL document CHEMBL4251631, “New antiglioma zwitterionic pronucleotides with an FdUMP framework” (Eur J Med Chem, 2018).
